Measured values taken from patent US20260234165A1, “MACROCYCLIC COMPOUNDS, PREPARATION METHOD THEREFOR, AND USE THEREOF” (GENFLEET THERAPEUTICS (SHANGHAI) INC., priority 2004, published 2026).
Like-named read-outs stand apart in the source and are kept apart here.

How the values were obtained:
[1] = test system: AsPC-1 cells (KRAS G12D mutation); test: 3D cell proliferation assay (CellTiter Glo-3D), AsPC-1; format: cell-based, human; conditions: medium with 2% FBS, read-out: AsPC-1 AP IC50
How it was run: (§1)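 Luminescence read-out (CellTiter-Glo 3D) after 5-day compound exposure at 37 °C, 5% CO2. Cells: NCI-H441 and AsPC-1, 800/well, RPMI-1640 + 2% FBS, 0.1% DMSO final. IC50 by four-parameter fit of % inhibition against log concentration.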

NCI-H441 cells = test: 3D cell proliferation assay (CellTiter Glo-3D), NCI-H441; format: cell-based, human; conditions: medium with 2% FBS, read-out: H441 AP IC50
How it was run: as §1

[2] = Homo sapiens, ASPC1, 3D cell proliferation (CellTiter Glo-3D)
[3] = Homo sapiens, NCI-H441, 3D cell proliferation (CellTiter Glo-3D)
[4] = 3D cell proliferation (CellTiter Glo-3D)

| Compound | IC50 [1, 2] [nM] | IC50 (NCI-H441 cells; [3]) [nM] | IC50 [1, 4] [nM] | IC50 (NCI-H441 cells; [4]) [nM] |
| --- | --- | --- | --- | --- |
| CCn1c(-c2cc(C#CCN3CCS(=O)(=O)CC3)cnc2[C@H](C)OC)c2c3cc(ccc31)-c1csc(n1)C[C@H](Nc1nnc3cc(C)ccn13)C(=O)N1CCC[C@H](N1)C(=O)OCC(C)(C)C2 (atropisomer, axis not shown; (Ra)) [Compound Z911, (6^3S,4S,Z)—(Ra)-1^2-(5-(3-(1,1-dioxidothiomorpholino)prop-1-yn-1-yl)-2-((S)-1-methoxyethyl)pyridin-3-yl)-1^1-ethyl-10,10-dimethyl-4-((7-methyl-[1,2,4]triazolo[4,3-a]pyridin-3-yl)amino)-6^1,6^2,6^3,6^4,6^5,6^6-hexahydro-1^1H-8-oxa-2(4,2)-thiazola-1(5,3)-indola-6(1.3)-pyridazinacycloundecaphane-5,7-dione] | 2.27 | 1.16 | – | – |
| CCn1c(-c2cc(C#C[C@@H]3COCCN3C)cnc2[C@H](C)OC)c2c3cc(ccc31)-c1csc(n1)C[C@H](NC(=O)[C@H]1[C@H](C)[C@@H]1C)C(=O)N1CCC[C@H](N1)C(=O)OCC(C)(C)C2 (atropisomer, axis not shown; (Ra)) [Compound Z672, (1r,2R,3S)—N-((6^3S,4S,Z)-1^1-ethyl-(Ra)-1^2-(2-((S)-1-methoxyethyl)-5-(((R)-4-methylmorpholin-3-yl)ethynyl)pyridin-3-yl)-10,10-dimethyl-5,7-dioxo-6^1,6^2,6^3,6^4,6^5,6^6hexahydro-1^1H-8-oxa-2(4,2)-thiazola-1(5,3)-indola-6(1,3)-pyridazinacycloundecaphane-4-yl)-2,3-dimethylcyclopropane-1-carboxamide] | 0.73 | 0.3 | – | – |
| CCn1c(-c2cc(C#CCN3C4CCC3COC4)cnc2[C@H](C)OC)c2c3cc(ccc31)-c1csc(n1)C[C@H](NC(=O)[C@H]1[C@H](C)[C@@H]1C)C(=O)N1CCC[C@H](N1)C(=O)OCC(C)(C)C2 (atropisomer, axis not shown; (Ra)) [Compound Z711, (1r,2R,3S)—N-((6^3S,4S,Z)—(Ra)-1^2-(5-(3-(3-oxa-8-azabicyclo[3.2.1]octan-8-yl)prop-1-yn-1-yl)-2-((S)-1-methoxyethyl)pyridin-3-yl)-1^1-ethyl-10,10-dimethyl-5,7-dioxo-6^1,6^2,6^3,6^4,6^5,6^6-hexahydro-1^1H-8-oxa-2(4,2)-thiazola-1(5,3)-indola-6(1,3)-pyridazinacycloundecaphane-4-yl)-2,3-dimethylcyclopropane-1-carboxamide] | – | – | 0.3 | 0.27 |
| CCn1c(-c2cc(C#CCN3CCCOCC3)cnc2[C@H](C)OC)c2c3cc(ccc31)-c1csc(n1)C[C@H](NC(=O)[C@H]1C[C@@H]1C)C(=O)N1CCC[C@H](N1)C(=O)OCC(C)(C)C2 (single isomer, unassigned) [Compound Z604] | 0.74 | 0.45 | – | – |
| CCn1c(-c2cc(N3CCN(CCS(C)(=O)=O)CC3)cnc2[C@H](C)OC)c2c3cc(ccc31)-c1csc(n1)C[C@H](NC(=O)[C@H]1[C@H](C)[C@@H]1C)C(=O)N1CCC[C@H](N1)C(=O)OCC1(CC1)C2 (single isomer, unassigned) [Compound Z367] | 13.5 | 2.14 | – | – |
| CCn1c(-c2cc(C#CCN3CCCOCC3)cnc2[C@H](C)OC)c2c3cc(ccc31)-c1csc(n1)C[C@H](NC(=O)CC1CC1)C(=O)N1CCC[C@H](N1)C(=O)OCC(C)(C)C2 (atropisomer, axis not shown; (Ra)) [Compound Z915] | 2.82 | 1.04 | – | – |
| CCn1c(-c2cc(C#CCN3CCN(C)C(=O)C3)cnc2[C@H](C)OC)c2c3cc(ccc31)-c1csc(n1)C[C@H](NC(=O)[C@H]1[C@H](C)[C@@H]1C)C(=O)N1CCC[C@H](N1)C(=O)OCC(C)(C)C2 (atropisomer, axis not shown; (Ra)) [Compound Z793] | 0.19 | 0.14 | – | – |
| CCn1c(-c2cc(C#CCN3CCS(=O)(=O)CC3)cnc2[C@H](C)OC)c2c3cc(ccc31)-c1csc(n1)C[C@H](NC(=O)[C@H]1[C@H](C)[C@@H]1C)C(=O)N1CCC[C@H](N1)C(=O)OCC(C)(C)C2 (atropisomer, axis not shown; (Ra)) [Compound Z838, (1r,2R,3S)—N-((6^3S,4S,Z)—(Ra)-1^2-(5-(3-(1,1-dioxidothiomorpholino)prop-1-yn-1-yl)-2-((S)-1-methoxyethyl)pyridin-3-yl)-1^1-ethyl-10,10-dimethyl-5,7-dioxo-6^1,6^2,6^3,6^4,6^5,6^6-hexahydro-1^1H-8-oxa-2(4,2)-thiazola-1(5,3)-indola-6(1,3)-pyridazinacycloundecaphane-4-yl)-2,3-dimethylcyclopropane-1-carboxamide] | 0.03 | 0.06 | – | – |
| CCn1c(-c2cc(C#CCN3CCCOCC3)cnc2C(C)C)c2c3cc(ccc31)-c1csc(n1)C[C@H](NC(=O)[C@H]1[C@H](C)[C@@H]1C)C(=O)N1CCC[C@H](N1)C(=O)OCC(C)(C)C2 (atropisomer, axis not shown; (Sa)) [Compound Z811-2, (1r,2R,3S)—N-((6^3S,4S,Z)—(Sa)-1-(5-(3-(1,4-oxazepan-4-yl)prop-1-yn-1-yl)-2-isopropylpyridin-3-yl)-1^1-ethyl-10,10-dimethyl-5,7-dioxo-6^1,6^2,6^3,6^4,6^5,6^6-hexahydro-1^1H-8-oxa-2(4,2)-thiazola-1(5,3)-indola-6(1,3)-pyridazinacycloundecaphane-4-yl)-2,3-dimethylcyclopropane-1-carboxamide] | – | – | 1.41 | 0.63 |
| CCn1c(-c2cc(N3CCN4CC5(CC5)OC[C@@H]4C3)cnc2[C@H](C)OC)c2c3cc(ccc31)-c1csc(n1)C[C@H](NC(=O)[C@H]1[C@H](C)[C@@H]1C)C(=O)N1CCC[C@H](N1)C(=O)OCC1(CC1)C2 (atropisomer, axis not shown; (Ra)) [Compound Z13] | 5 | 1.2 | – | – |
| CCn1c(-c2cc(C#CCN3CCOC[C@H]3C)cnc2[C@H](C)OC)c2c3cc(ccc31)-c1csc(n1)C[C@H](NC(=O)[C@H]1[C@H](C)[C@@H]1C)C(=O)N1CCCC(N1)C(=O)OCC(C)(C)C2 (atropisomer, axis not shown; (Ra)) [Compound Z813] | – | – | 0.18 | 0.15 |
| CCn1c(-c2cc(C#CCN3CCC3)cnc2[C@H](C)OC)c2c3cc(ccc31)-c1csc(n1)C[C@H](NC(=O)[C@H]1[C@H](C)[C@@H]1C)C(=O)N1CCC[C@H](N1)C(=O)OCC(C)(C)C2 (single isomer, unassigned) [Compound Z554] | 1.18 | 0.83 | – | – |
| CO[C@@H](C)c1ncc(C#CCN2CCCOCC2)cc1-c1c2c3cc(ccc3n1CC(F)(F)F)-c1csc(n1)C[C@H](NC(=O)[C@H]1[C@H](C)[C@@H]1C)C(=O)N1CCC[C@H](N1)C(=O)OCC(C)(C)C2 (atropisomer, axis not shown; (Ra)) [Compound Z700, N-((6^3S,4S,Z)-1^1-(2,2,2-trifluoroethyl)-(Ra)-1^2-(2-((S)-1-methoxyethyl)-(5-(3-(1,4-oxazepan-4-yl)prop-1-yn-1-yl))-pyridin-3-yl)-10,10-dimethyl-5,7-dioxo-6^1,6^2,6^3,6^4,6^5,6^6-hexahydro-1^1H-8-oxa-2(4,2)-thiazola-1(5,3)-indola-6(1,3)-pyridazinacycloundecaphane-4-yl)-2,3-dimethylcyclopropane-1-carboxamide] | – | – | 0.18 | 0.17 |
| CCn1c(-c2cc(C#CCN(C)CCOC)cnc2[C@H](C)OC)c2c3cc(ccc31)-c1csc(n1)C[C@H](NC(=O)[C@H]1[C@H](C)[C@@H]1C)C(=O)N1CCC[C@H](N1)C(=O)OCC(C)(C)C2 (atropisomer, axis not shown; (Ra)) [Compound Z788] | – | – | 0.78 | 0.28 |
| CCn1c(-c2cc(C#CCN3CCC(C(F)(F)F)CC3)cnc2[C@H](C)OC)c2c3cc(ccc31)-c1csc(n1)C[C@H](NC(=O)[C@H]1[C@H](C)[C@@H]1C)C(=O)N1CCC[C@H](N1)C(=O)OCC(C)(C)C2 (atropisomer, axis not shown; (Ra)) [Compound Z778] | 2.39 | 1.14 | – | – |
| CCO[C@@H](C)c1ncc(N2CCN(CCS(C)(=O)=O)CC2)cc1-c1c2c3cc(ccc3n1CC)-c1csc(n1)C[C@H](NC(=O)[C@H]1[C@H](C)[C@@H]1C)C(=O)N1CCC[C@H](N1)C(=O)OCC1(CC1)C2 (single isomer, unassigned) [Compound Z378-1] | 14.1 | 3.62 | – | – |
| CCn1c(-c2cc(C#CCN3CCCOCC3)cnc2[C@H](C)OC)c2c3cc(ccc31)-c1csc(n1)C[C@H](NC(=O)[C@H]1[C@H](C)[C@@H]1C)C(=O)N1CCC[C@H](N1)C(=O)OCC(C)(C)C2 (single isomer, unassigned) [Compound Z504] | 0.4 | 0.31 | – | – |
| CCn1c(-c2cc(C#CCN3CCCN(C)CC3)cnc2[C@H](C)OC)c2c3cc(ccc31)-c1csc(n1)C[C@H](NC(=O)[C@H]1[C@H](C)[C@@H]1C)C(=O)N1CCC[C@H](N1)C(=O)OCC(C)(C)C2 (atropisomer, axis not shown; (Ra)) [Compound Z802, (1r,2R,3S)—N-((6^3S,4S,Z)-1^2-(5-(3-(4-methyl-1,4-diaza-1-yl)prop-1-yn-1-yl)-(Ra)-2-((S)-1-methoxyethyl)pyridin-3-yl)-1^1-ethyl-10,10-dimethyl-5,7-dioxo-6^1,6^2,6^3,6^4,6^5,6^6-hexahydro-1^1H-8-oxa-2(4,2)-thiazola-1(5,3)-indola-6(1,3)-pyridazinacycloundecaphane-4-yl)-2,3-dimethylcyclopropane-1-carboxamide] | 0.34 | 0.26 | – | – |
| CCn1c(-c2cc(C#CCN3CCCOCC3)cnc2[C@H](C)OC)c2c3cc(ccc31)-c1csc(n1)C[C@H](NC(=O)CC(C)C)C(=O)N1CCC[C@H](N1)C(=O)OCC(C)(C)C2 (single isomer, unassigned) [Compound Z803] | 1.49 | 0.61 | – | – |
